Assay results as given in patent US10054582B2, “Compositions and methods for inhibiting HMGB1 activation of melanocytes” (The Procter & Gamble Company, priority 2014, dated 2018).
Entries after “also recorded” stand apart in the source; their conditions may differ.

Experiments:
HMGB1 = HMGB1 quantitation from keratinocytes (ELISA, normalized to total protein); type: cell-based; details: for change in HMGB1 level relative to the control (in words): keratinocytes contacted with test agent at different concentrations; for HMGB1 (pg)/protein (ug): keratinocytes, vehicle control 54
Procedure: Make a 210 mL suspension of keratinocytes at 40,000 cells/mL using suitable media to make a cell suspension. Place 2 mL of the cell suspension into the appropriate number of wells of one or more 12-well plates as needed, using the same velocity and insertion angle for each well as cells are pipetted. Incubate the 12-well plates overnight at 37° C. If the cell plating quality is poor (e.g., cells are not attached to plate or seeding density is uneven), discard and start over. Prepare a dosing media by diluting the test agent to the desired concentration (e.g., from 0.0001% to 10%) in a suitable media (e.g., the same media used to make the cell suspension). […] It is not uncommon for skin care actives to be included in skin care compositions at these levels. Optionally, include sufficient solublizer to provide 0.1% solublizer in the test sample. Add 2 mL of dosing media into each well of a 12-well plate and incubate at 4° C. overnight or until test agent is to be added to the test sample. Place prepared dosing media in the 37° C. incubator for at least 30 minutes, or until pH has equalized. When dosing media is warmed and at proper pH, dose the cells. Incubate the dosed cells at 37° C. for 6 hours. Keratinocytes (or other cells) are plated out in 12 well plates as described above with a seeding density of about 200,000 cells/well and incubated overnight at 37° C. with 5% CO2. The keratinocytes are dosed with a dosing medium containing the test agent and the plates returned to the incubator for another 20 hours. The supernatant for each is collected and the HMGB1 level analyzed using ELISA (USCN Life Sciences) in accordance with manufacturer's instructions. The cells are lysed with Glo Lysis Buffer (Promega) and the protein levels determined using a PIERCE brand bicinchoninic acid protein assay kit per manufacturer's instructions. The values of HMGB1 determined by ELISA and normalized to total protein levels from the cells.

[1] = test system: primary human melanocytes; experiment: Melanocyte dendricity and size measurements (Incucyte ZOOM live cell imaging); type: cell-based
Text: The ability of a test agent to inhibit dendricity and cell body growth in melanocytes may be determined by contacting a sample of melanocytes with the test agent, measuring the change in dendricity and/or cell body growth and comparing the measured indicator to a control to determine if the test agent is identified as a skin tone agent. In some instances, it is important for the test sample to include a source of HMGB1. For example, an amount of HMGB1 (e.g., recombinant HIS-tagged HMGB1 available from Sigma) may be included in the test sample (e.g., at a final level of 0.1 μg/mL), or the test sample may include another type of cell, which can be stimulated to produce HMGB1. A control may be obtained by measuring the dendricity and/or cell body size of the melanocytes prior to contact with the test agent, measuring the dendricity and/or cell body size of the melanocytes in a control sample and/or from the dendricity and/or cell body size of melanocytes published in scientific literature, if available.
Primary human melanocytes (ATCC) are cultured for 2 passages in T150 flasks. For dendricity experiments, melanocytes are plated into 96 well plates (clear) at a density of about 5000 cells/well. The plates are placed into an Incucyte ZOOM® live cell imaging system (Essen Bioscience, Ann Arbor, Mich.) which resides inside a 37° C., 5% CO2 incubator. 20× images are collected every hour using the phase mode. The Neurite Outgrowth Software Package (Essen) is used to measure cell body size, dendrite length, and cell numbers.

[2] = melanocytes contacted with HMGB1 vs control / before treatment, span of three days

Molecule	change in HMGB1 level relative to the control (in words) (HMGB1)	HMGB1 (pg)/protein (ug) (HMGB1; test agent at 0.001%) [pg/µg]	HMGB1 (pg)/protein (ug) (HMGB1; test agent at 0.005%) [pg/µg]	HMGB1 (pg)/protein (ug) (HMGB1; test agent at 0.02%) [pg/µg]	cell body size of melanocytes [1, 2]	dendricity (dendrite length) of melanocytes [1, 2]	melanocyte proliferation ([1]; primary human melanocytes contacted with HMGB1)
hydroxycinnamic acid [HCA]	significantly reduced HMGB1 levels relative to the control	29	6	2			
methyl hydroxycinnamic acid [ME-HCA]	significantly reduced HMGB1 levels relative to the control	33	28	4			
HMGB1: high-mobility group protein B1, SEQ ID NO: 1; recombinant HIS-tagged HMGB1 available from Sigma (protein, listed as Homo sapiens, His tag, recombinant HIS-tagged HMGB1 available from Sigma) MGKGDPKKPRGKMSSYAFFVQTCREEHKKKHPDASVNFSEFSKKCSERWKTMSAKEKGKFEDMAKADKARYEREMKTYIPPKGETKKKFKDPNAPKRPPSAFFLFCSEYRPKIKGEHPGLSIGDVAKKLGEMWNNTAADDKQPYEKKAAKLKEKYEKDIAAYRAKGKPDAAKKGVVKAEKSKKKKEEEEDEEDEEDEEEEEDEEDEDEEEDDDDE					significantly larger cell body size relative to the control; also recorded: increased dendricity and cell body size	significantly longer dendrites relative to the control; also recorded: increased dendricity	without enhancing melanocyte proliferation
